Laboratory results: article PMC9127750, “Structure-based design of CDC42 effector interaction inhibitors for the treatment of cancer” (Cell reports, 2022)
“And” between values parts separate entries of the source, which are not always exact repeats. Identical values can stand only once.

Tested on: WM3248 melanoma cells, 486 antibodies
Experiment: Reverse phase protein arrays (RPPA);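 as to CA9.R.C RPPA level: ratio of treated to vehicle (0 µM) normalized linear protein signal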;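 as to CD171.M.V RPPA level: ratio of treated to vehicle (0 µM) normalized linear protein signal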;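 as to CREB pS133.R.C RPPA level: ratio of treated to vehicle (0 µM) normalized linear protein signal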;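 as to Cyclin.B1.R.V RPPA level: ratio of treated to vehicle (0 µM) normalized linear protein signal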
Format: cell-based, Human
Settings: 20 uM
Source text: Pellets were snap frozen in liquid nitrogen and shipped to MD Anderson Cancer Center core RPPA facility for RPPA analysis (Table S5). Three biological replicates for each sample were generated.
Nomenclatures on the RPPA heatmaps: name_of_antibody.species_of_antibody.status_of_antibody. V - antibody validated; C - validation of antibody in progress; Q - antibody nonspecific; E – under evaluation; antibodies raised in M - mouse, G - goat, R - rabbit, or T - rat.

Compound: CN(C)c1cccc(Nc2cc(-c3ccccc3)nc(C3CCNCC3)n2)c1 [ARN22089, N1,N1-dimethyl-N3-(6-phenyl-2-(piperidin-4-yl)pyrimidin-4-yl)benzene-1,3-diamine]
- RPPA signal, antibody UQCRC2.M.C (individual replicates): 0.993 and 0.916 and 0.753
- RPPA signal, antibody UVRAG.R.C (individual replicates): 0.916 and 1.111 and 1.110
- RPPA signal, antibody VASP.R.V (individual replicates): 1.010 and 0.872 and 0.975
- RPPA signal, antibody VAV1.R.C (individual replicates): 0.958 and 1.058 and 1.057
- RPPA signal, antibody VEGFR.2.R.V (individual replicates): 0.883 and 0.823 and 1.079
- RPPA signal, antibody VEGFR.2_pY1175.R.C (individual replicates): 1.118 and 0.976
- RPPA signal, antibody VHL.EPPK1.M.C (individual replicates): 1.005 and 1.203 and 0.853
- RPPA signal, antibody VHL.R.C (individual replicates): 0.953 and 0.849
- RPPA signal, antibody Vinculin.M.V (individual replicates): 0.888 and 0.854 and 0.998
- RPPA signal, antibody WIPI1.R.C (individual replicates): 1.160 and 1.238 and 1.145
- RPPA signal, antibody WIPI2.R.C (individual replicates): 1.015 and 1.158 and 1.252
- RPPA signal, antibody WTAP.R.V (individual replicates): 1.419 and 1.174 and 0.998
- RPPA signal, antibody Wee1.R.C (individual replicates): 0.776 and 1.131 and 1.126
- RPPA signal, antibody Wee1_pS642.R.C (individual replicates): 0.845 and 1.173 and 1.116
- RPPA signal, antibody XBP.1.G.C (individual replicates): 0.989 and 0.988
- RPPA signal, antibody XIAP.R.C (individual replicates): 0.944 and 0.910 and 1.125
- RPPA signal, antibody XPA.M.V (individual replicates): 0.967 and 1.026
- RPPA signal, antibody XPF.R.C (individual replicates): 0.937 and 0.898 and 1.023
- RPPA signal, antibody XRCC1.R.C (individual replicates): 1.008 and 1.026
- RPPA signal, antibody YAP.R.C (individual replicates): 1.004 and 1.030 and 0.945
- RPPA signal, antibody YAP_pS127.R.V (individual replicates): 1.152 and 0.978 and 0.976
- RPPA signal, antibody YB1_pS102.R.V (individual replicates): 1.029 and 0.913 and 1.102
- RPPA signal, antibody YES1.R.V (individual replicates): 1.048 and 0.896 and 0.978
- RPPA signal, antibody YTHDF2.R.V (individual replicates): 1.166 and 0.983 and 0.917
- RPPA signal, antibody YTHDF3.R.C (individual replicates): 0.960 and 0.870
- RPPA signal, antibody ZAP.70.R.V (individual replicates): 0.979 and 0.883 and 0.925
- RPPA signal, antibody ZEB1.R.V (individual replicates): 1.076 and 1.001 (2×)
- C.Raf.R.C RPPA level (replicates): 0.876 and 1.165 and 1.143
- C.Raf_pS338.R.V RPPA level (replicates): 0.991 and 1.112 and 1.160
- CA9.R.C RPPA level (replicates): 0.919 and 0.861 and 0.996
- CD2.M.C RPPA level (replicates): 0.941 and 0.909 and 0.958
- CD4.R.V RPPA level (replicates): 0.942 and 0.993 and 1.083
- CD5.M.C RPPA level (replicates): 0.997 and 0.956 and 0.945
- CD20.R.C RPPA level (replicates): 1.250 and 0.955
- CD26.R.V RPPA level (replicates): 1.005 and 0.958 and 1.161
- CD29.M.V RPPA level (replicates): 0.953 and 0.914 and 0.985
- CD31.M.V RPPA level (replicates): 0.978 and 0.997 and 0.990
- CD38.R.C RPPA level (replicates): 0.979 and 1.221 and 1.194
- CD44.R.C RPPA level (replicates): 1.115 and 0.966
- CD45.M.V RPPA level (replicates): 0.921 and 0.967 and 0.985
- CD49b.M.V RPPA level (replicates): 0.971 and 0.954
- CD68.M.C RPPA level (replicates): 1.009 and 1.025 and 0.962
- CD74.M.V RPPA level (replicates): 1.011 and 1.026 and 0.956
- CD134.R.V RPPA level (replicates): 0.989 and 0.997 and 0.996
- CD171.M.V RPPA level (replicates): 0.680 and 0.817 and 0.790
- CDK1_pT14.R.C RPPA level (replicates): 1.334 and 0.655
- CDK9.R.V RPPA level (replicates): 1.161 and 0.839 and 0.893
- CDKN2A.R.C RPPA level (replicates): 0.966 and 1.130 and 0.976
- CDT1.R.V RPPA level (replicates): 0.905 and 0.934
- CENP.A.R.V RPPA level (replicates): 2.651 and 0.953
- CHD1L.R.V RPPA level (replicates): 0.935 and 0.987 and 0.941
- CIITA.R.C RPPA level (replicates): 1.013 and 1.020 and 0.972
- COG3.R.V RPPA level (replicates): 0.941 and 1.097 and 1.256
- CRABP1.R.C RPPA level (replicates): 1.019 and 1.064 and 0.991
- CRABP2.R.V RPPA level (replicates): 0.965 and 1.085 and 0.882
- CREB_pS133.R.C RPPA level (replicates): 0.965 and 1.585 and 1.260
- CSK.R.C RPPA level (replicates): 0.871 and 1.022
- Calnexin.R.V RPPA level (replicates): 0.849 and 0.983
- Caspase.3.cleaved.R.C RPPA level (replicates): 0.952 and 1.128 and 1.028
- Caspase.7.cleaved..R.C RPPA level (replicates): 1.007 and 0.873 and 1.064
- Caspase.8.M.Q RPPA level (replicates): 1.015 and 0.943 and 0.830
- Caspase.8.cleaved.R.C RPPA level (replicates): 0.945
- Caveolin.1.R.V RPPA level (replicates): 0.593 and 0.774 and 1.160
- Cdc6.R.V RPPA level (replicates): 1.141 and 0.773 and 0.673
- Cdc42.R.C RPPA level (replicates): 0.928 and 1.027 and 1.096
- Chk1.M.C RPPA level (replicates): 0.847 and 0.982
- Chk1_pS296.R.V RPPA level (replicates): 0.942 and 1.163 and 1.155
- Chk1_pS345.R.C RPPA level (replicates): 1.030 and 1.165 and 1.125
- Chk2.M.V RPPA level (replicates): 0.868 and 0.876 and 0.992
- Chk2_pT68.R.C RPPA level (replicates): 0.919 and 1.631 and 1.172
- Claudin.7.R.V RPPA level (replicates): 0.970 and 1.594 and 0.965
- Collagen.VI.R.V RPPA level (replicates): 1.150 and 0.775 and 0.928
- Complex.II.Subunit.M.V RPPA level (replicates): 0.977 and 0.871 and 0.988
- Connexin.43.R.C RPPA level (replicates): 0.961 and 1.203 and 1.101
- Coup.TFII.R.C RPPA level (replicates): 0.854 and 0.942 and 1.027
- Cox2.R.C RPPA level (replicates): 1.254 and 0.972 and 1.574
- Cox.IV.R.V RPPA level (replicates): 1.125 and 0.898 and 0.967
- Creb.R.C RPPA level (replicates): 1.005 and 1.024 and 1.173
- CtIP.R.V RPPA level (replicates): 0.804 and 0.988 and 1.058
- Cyclin.B1.R.V RPPA level (replicates): 1.623 and 0.503 and 1.275
- Cyclin.D1.R.C RPPA level (replicates): 1.131 and 1.034 and 0.955
